In US8669249B2, “Poly (ADP-ribose) polymerase (PARP) inhibitors” (Takeda Pharmaceutical Company Limited, priority 2009, dated 2014):

What was measured:
PARP = biological target: T1, PARP (Homo sapiens, UniProt P09874); assay: PARP ELISA (ELISA-based colorimetric PARP/Apoptosis Assay kit, Trevigen); type: biochemical; details: pIC50=-log10 IC50, IC50 in mol/L; inhibition of PARP catalytic activity
T1 construct: purchased Trevigen 4684-096-K HT (kit); 4684-096-01 (PARP enzyme)
Method in brief: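 Quenched after 10 min catalysis by aspiration and four PBS/0.1% Triton X-100 washes. Poly(ADP-ribose) detected with mouse anti-PAR monoclonal antibody, goat anti-mouse IgG-HRP and HRP substrate; colorimetric signal proportional to PARP catalytic activity.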

Jurkat cell line = assay: PARP cellular chemopotentiation assay (MTS, with/without TMZ); type: cell-based; details: Chemopotentiation factor: ratio of EC50 values of Jurkat cells co-treated without and with 100 μM TMZ; 96 hours
Method in brief: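 Jurkat cells, 10,000/well, pre-cultured 24 h, then treated 96 h with serial compound dilutions (0.5% DMSO) with or without 100 μM TMZ. Viability by MTS conversion (OD490), normalized to DMSO controls; EC50 from curve fits, PF50 = EC50 without TMZ / EC50 with TMZ.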

[1] = biological target: T2, catalytic domain of Human PARP (Homo sapiens, UniProt P09874); assay: Biacore surface plasmon resonance affinity assay; type: binding; details: pKD=-log10 KD, KD in mol/L; Biacore T100, 25° C.; read-out: pKD (converted)
T2 construct: The catalytic domain of Human PARP was cloned and prepared; made in house
T2 sequence (P09874 788-1014 limits assumed): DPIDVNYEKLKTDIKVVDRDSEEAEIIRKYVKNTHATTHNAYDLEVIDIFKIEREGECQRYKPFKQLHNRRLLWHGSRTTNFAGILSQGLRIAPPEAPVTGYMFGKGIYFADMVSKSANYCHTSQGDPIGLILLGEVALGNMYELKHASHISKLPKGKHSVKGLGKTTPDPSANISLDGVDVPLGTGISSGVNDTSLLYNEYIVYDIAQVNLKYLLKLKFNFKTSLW
Method in brief: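 Binding at 25° C on Biacore T100: 1 min compound association then 5 min dissociation (50 μL/min) over immobilized PARP catalytic domain, buffer HBS-P plus 1% DMSO, 0.5 mM TCEP, 5 mM MgCl2, 2-fold dilution series. KD derived as koff/kon from fitted association and dissociation phases.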

T1 sequence (P09874 whole entry): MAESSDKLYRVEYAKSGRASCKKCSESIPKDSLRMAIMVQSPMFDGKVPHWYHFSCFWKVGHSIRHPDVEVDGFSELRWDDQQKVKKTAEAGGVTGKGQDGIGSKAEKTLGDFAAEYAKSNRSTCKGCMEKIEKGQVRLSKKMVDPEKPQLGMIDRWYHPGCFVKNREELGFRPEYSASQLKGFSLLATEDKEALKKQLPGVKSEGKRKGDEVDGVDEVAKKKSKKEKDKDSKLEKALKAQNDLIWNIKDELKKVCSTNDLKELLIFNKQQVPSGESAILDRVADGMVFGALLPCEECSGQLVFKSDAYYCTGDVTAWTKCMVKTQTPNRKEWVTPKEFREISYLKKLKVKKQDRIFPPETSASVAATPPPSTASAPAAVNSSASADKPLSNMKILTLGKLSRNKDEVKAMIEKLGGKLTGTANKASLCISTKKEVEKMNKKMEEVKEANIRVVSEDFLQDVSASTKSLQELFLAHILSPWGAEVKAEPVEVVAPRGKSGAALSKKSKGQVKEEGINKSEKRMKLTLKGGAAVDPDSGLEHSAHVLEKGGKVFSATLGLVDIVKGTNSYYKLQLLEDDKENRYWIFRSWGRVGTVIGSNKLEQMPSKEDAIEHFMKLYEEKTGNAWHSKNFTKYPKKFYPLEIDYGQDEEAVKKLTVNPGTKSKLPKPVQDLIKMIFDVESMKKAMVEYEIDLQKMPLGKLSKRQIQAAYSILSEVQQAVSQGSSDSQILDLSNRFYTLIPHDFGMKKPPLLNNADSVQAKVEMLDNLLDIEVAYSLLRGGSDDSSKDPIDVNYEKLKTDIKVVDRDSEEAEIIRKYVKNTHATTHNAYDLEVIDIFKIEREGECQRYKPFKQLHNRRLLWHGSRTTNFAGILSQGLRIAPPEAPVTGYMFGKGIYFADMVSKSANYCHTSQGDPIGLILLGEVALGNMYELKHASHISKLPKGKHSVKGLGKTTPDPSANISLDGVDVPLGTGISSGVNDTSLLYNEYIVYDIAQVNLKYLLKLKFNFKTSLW

Row | Structure (SMILES) | IC50 (PARP) [µM] | Kd [1] [µM] | PF50 (Jurkat cell line)
1 | CCOC(=O)c1ccc(N2CCN(Cc3ccc4c(c3)NC(=O)C(C)O4)CC2)nc1 (stereo not drawn) [Compound 237, Ethyl 6-(4-((2-methyl-3-oxo-3,4-dihydro-2H-benzo[b][1,4]oxazin-6-yl)methyl)piperazin-1-yl)nicotinate] | ≥ 0.126 | ≤ 0.01 | ≦0.9
2 | CCOC(=O)c1ccc(N2CCN(Cc3cc(C)c4c(c3)NC(=O)C(C)O4)CC2)cc1 (stereo not drawn) [Compound 255, Ethyl 4-(4-((2,8-dimethyl-3-oxo-3,4-dihydro-2H-benzo[b][1,4]oxazin-6-yl)methyl)piperazin-1-yl)benzoate] | 0.0398 to 0.1 | 0.0126 to 0.1 | ≦0.9
3 | Cc1cc(CN2CCN(c3ccc(C(=O)NC4CC4)cc3)CC2)cc2c1OC(C)C(=O)N2 (stereo not drawn) [Compound 259, N-Cyclopropyl-4-(4-((2,8-dimethyl-3-oxo-3,4-dihydro-2H-benzo[b][1,4]oxazin-6-yl)methyl)piperazin-1-yl)benzamide] | ≤ 0.0316 | ≤ 0.01 | ≧10.0
4 | CC1Oc2c(F)cc(CN3CCN(c4ccc(C#N)cn4)CC3)cc2NC1=O (stereo not drawn) [Compound 267, 6-(4-((8-fluoro-2-methyl-3-oxo-3,4-dihydro-2H-benzo[b][1,4]oxazin-6-yl)methyl)piperazin-1-yl)nicotinonitrile] | ≤ 0.0316 | ≤ 0.01 | 1.0-1.9
5 | CNC(=O)c1ccc(N2CCN(Cc3cc(F)c4c(c3)NC(=O)C(C)O4)CC2)cc1 (stereo not drawn) [Compound 271, 4-(4-((8-Fluoro-2-methyl-3-oxo-3,4-dihydro-2H-benzo[b][1,4]oxazin-6-yl)methyl)piperazin-1-yl)-N-methylbenzamide] | 0.0398 to 0.1 | ≤ 0.01 | ≦0.9
6 | CC1Oc2c(F)cc(CN3CCN(c4ccc(C(=O)NC5CC5)cc4)CC3)cc2NC1=O (stereo not drawn) [Compound 273, N-Cyclopropyl-4-(4-((8-fluoro-2-methyl-3-oxo-3,4-dihydro-2H-benzo[b][1,4]oxazin-6-yl)methyl)piperazin-1-yl)benzamide] | ≤ 0.0316 | < 0.0316 | ≦0.9

Now from value to compound, other results behind:

Row | IC50 (PARP) [µM] | Kd [1] [µM] | Structure (SMILES) | PF50 (Jurkat cell line)
7 | ≤ 0.0316 | ≤ 0.01 | CCNC(=O)c1ccc(N2CCN(Cc3ccc4c(c3)NC(=O)C(C)O4)CC2)nc1 (stereo not drawn) [Compound 236, N-Ethyl-6-(4-((2-methyl-3-oxo-3,4-dihydro-2H-benzo[b][1,4]oxazin-6-yl)methyl)piperazin-1-yl)nicotinamide] | ≦0.9
8 | 0.0398 to 0.1 | 0.0126 to 0.1 | CC(C)NC(=O)c1ccc(N2CCN(Cc3ccc4c(c3)NC(=O)C(C)O4)CC2)nc1 (stereo not drawn) [Compound 238, N-Isopropyl-6-(4-((2-methyl-3-oxo-3,4-dihydro-2H-benzo[b][1,4]oxazin-6-yl)methyl)piperazin-1-yl)nicotinamide] | 1.0-1.9
9 | ≥ 0.126 | 1.26 to 10 | CC1Oc2ccc(CN3Cc4ccc(NC(=O)C5CC5)cc4C3)cc2NC1=O (stereo not drawn) [Compound 243, N-(2-((2-Methyl-3-oxo-3,4-dihydro-2H-benzo[b][1,4]oxazin-6-yl)methyl)isoindolin-5-yl)cyclopropanecarboxamide] | ≦0.9
10 | ≤ 0.0316 | ≤ 0.01 | Cc1cc(CN2CCN(c3ccc(C#N)cc3)CC2)cc2c1OC(C)C(=O)N2 (stereo not drawn) [Compound 253, 4-(4-((2,8-Dimethyl-3-oxo-3,4-dihydro-2H-benzo[b][1,4]oxazin-6-yl)methyl)piperazin-1-yl)benzonitrile] | 2.0-9.9
11 | ≤ 0.0316 | 0.0126 to 0.1 | Cc1cc(CN2CCN(c3ccc(C#N)cn3)CC2)cc2c1OC(C)C(=O)N2 (stereo not drawn) [Compound 254, 6-(4-((2,8-Dimethyl-3-oxo-3,4-dihydro-2H-benzo[b][1,4]oxazin-6-yl)methyl)piperazin-1-yl)nicotinonitrile] | 2.0-9.9
12 | ≤ 0.0316 | ≤ 0.01 | CNC(=O)c1ccc(N2CCN(Cc3cc(C)c4c(c3)NC(=O)C(C)O4)CC2)cc1 (stereo not drawn) [Compound 257, 4-(4-((2,8-Dimethyl-3-oxo-3,4-dihydro-2H-benzo[b][1,4]oxazin-6-yl)methyl)piperazin-1-yl)-N-methylbenzamide] | 2.0-9.9
13 | 0.0398 to 0.1 | ≤ 0.01 | CCNC(=O)c1ccc(N2CCN(Cc3cc(C)c4c(c3)NC(=O)C(C)O4)CC2)nc1 (stereo not drawn) [Compound 261, 6-(4-((2,8-Dimethyl-3-oxo-3,4-dihydro-2H-benzo[b][1,4]oxazin-6-yl)methyl)piperazin-1-yl)-N-ethylnicotinamide] | 2.0-9.9
14 | 0.0398 to 0.1 | < 0.0316 | CCNC(=O)c1ccc(N2CCN(Cc3cc(F)c4c(c3)NC(=O)C(C)O4)CC2)cc1 (stereo not drawn) [Compound 272, N-Ethyl-4-(4-((8-fluoro-2-methyl-3-oxo-3,4-dihydro-2H-benzo[b][1,4]oxazin-6-yl)methyl)piperazin-1-yl)benzamide] | 1.0-1.9
